{"source": "paper PMC4696824", "about": "(PLoS ONE, 2015)", "key": {"[1]": {"molecular_target": "T1, cathepsin B-like cysteine peptidase (DCcathB) (Diaphorina citri, UniProt A0A0U4DX43)", "T1 construct": "mature peptide residues 70 to 374", "T1 sequence (A0A0U4DX43 70-374)": "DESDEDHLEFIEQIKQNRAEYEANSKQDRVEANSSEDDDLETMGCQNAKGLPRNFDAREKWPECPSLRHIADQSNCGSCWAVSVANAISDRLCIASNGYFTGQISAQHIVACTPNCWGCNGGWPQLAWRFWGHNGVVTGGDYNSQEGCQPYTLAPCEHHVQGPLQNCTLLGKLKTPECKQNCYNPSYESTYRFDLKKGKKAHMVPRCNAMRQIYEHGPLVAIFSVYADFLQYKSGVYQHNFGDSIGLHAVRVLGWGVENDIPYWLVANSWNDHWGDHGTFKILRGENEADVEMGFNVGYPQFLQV", "experiment": "fluorogenic inhibition assay, Z-F-R-AMC substrate, purified recombinant enzyme", "assay_type": "biochemical"}, "[2]": {"substrate": "Cc1cc(=O)oc2cc(NC(=O)[C@H](CCCNC(=N)N)NC(=O)[C@H](CCCNC(=N)N)NC(=O)OCc3ccccc3)ccc12", "experiment": "fluorogenic substrate hydrolysis, Km, purified recombinant enzyme", "assay_type": "biochemical, Diaphorina citri"}, "[3]": {"substrate": "Cc1cc(=O)oc2cc(NC(=O)[C@H](CCCNC(=N)N)NC(=O)[C@H](Cc3ccccc3)NC(=O)OCc3ccccc3)ccc12", "experiment": "fluorogenic substrate hydrolysis, Km, purified recombinant enzyme", "assay_type": "biochemical, Diaphorina citri"}}, "data": [{"molecule": "CC(C)C[C@H](NC(=O)[C@H]1O[C@@H]1C(=O)O)C(=O)NCCCCN=C(N)N", "note": "[E-64, L-trans-Epoxysuccinyl-leucylamido(4-guanidino)butane]", "values": [{"measurement": "IC50", "setting": "[1]", "result": 14, "unit": "nM"}]}, {"molecule": "CCCNC(=O)[C@H]1O[C@@H]1C(=O)N[C@H](C(=O)N1CCC[C@H]1C(=O)O)[C@@H](C)CC", "note": "[CA-074, N-(l-3-trans-propylcarbamoyloxirane-2-carbonyl)-L-isoleucyl-L-proline]", "values": [{"measurement": "IC50", "setting": "[1]", "result": 0.095, "unit": "nM"}]}, {"molecule": "cathepsin B-like cysteine peptidase (DCcathB) (Diaphorina citri) (protein, mature peptide residues 70 to 374) DESDEDHLEFIEQIKQNRAEYEANSKQDRVEANSSEDDDLETMGCQNAKGLPRNFDAREKWPECPSLRHIADQSNCGSCWAVSVANAISDRLCIASNGYFTGQISAQHIVACTPNCWGCNGGWPQLAWRFWGHNGVVTGGDYNSQEGCQPYTLAPCEHHVQGPLQNCTLLGKLKTPECKQNCYNPSYESTYRFDLKKGKKAHMVPRCNAMRQIYEHGPLVAIFSVYADFLQYKSGVYQHNFGDSIGLHAVRVLGWGVENDIPYWLVANSWNDHWGDHGTFKILRGENEADVEMGFNVGYPQFLQV", "values": [{"measurement": "Km", "setting": "[2]", "result": 6.13, "unit": "µM"}, {"measurement": "Km", "setting": "[3]", "result": 23.5, "unit": "µM"}]}]}
